Results: US20040048754A1, “Compounds for a controlled release of active compounds” (priority 2001, published 2004)

What was measured:
Type in all cases: physicochemical
[1] = Amount of cyclization of the precursor under alkaline hydrolysis conditions (HPLC); conditions: 20° C., first step of cyclization only, % relative to total amount of starting compound
Method: Buffer solutions were prepared by dissolving two phosphate or borate buffer tablets (origin: Fluka, Switzerland) in a mixture of 160 ml water and 40 ml acetonitrile, respectively. To determine the exact pH value of the reaction solution, 10 ml of the buffer solutions were diluted with 2 ml of acetonitrile and the pH values measured (on a Mettler Toledo MP220 apparatus with an InLab 410 Ag/AgCl glass electrode) to be 7.62 (phosphate buffer) and 10.47 (borate buffer).
0.2 ml of a solution of 35 to 45 mg of the precursors in 25 ml of acetonitrile were added to 1.0 ml of a buffer solution at 20° C. The mixture was immediately injected in a HPLC apparatus (t=0), eluted at 1 ml/min on a reversed phase column with a mixture of water/acetonitrile containing 0.1% of TFA. Then the decrease of the amount of precursor and the simultaneous formation of the cyclized products was monitored at different time intervals at λ=254 and 280 nm. Chromatograms were recorded on a Macherey-Nagel, Nucleosil® 100-5 C18 column (250×4 mm i.d.) using a water/acetonitrile gradient (70:30 to 20:80 during 20 min) or on a Merck Chromolith™ SpeedROD RP-C18e column (50×4.6 mm i.d.) using a water/acetonitrile gradient (70:30 to 40:60 during 3 min).

[2] = Measure of fragrance release (hydrolysis) by UV spectroscopy; conditions: phosphate buffer, 20° C., 260-360 nm
Method: 2 ml of a precursor solution (35-55 mg in 25 ml of acetonitrile, at 20° C.) were added, at t=0, to 10 ml of a phosphate buffer solution (prepared as described in Example 14).
Hydrolysis was followed by recording the absorption spectra of the reaction mixture at constant time intervals in the range of 260-360 nm with a scanning rate of 960 nm/min until completion of the hydrolysis.

[3] = Amount of perfumery alcohols released by alkaline hydrolysis (HPLC); conditions: % relative to total amount of starting compound
Method: […] To determine the exact pH value of the reaction solution, 10 ml of the buffer solutions were diluted with 2 ml of acetonitrile and the pH values measured (on a Mettler Toledo […]).
About 25 mg of the precursors were placed in 1 ml of a buffer solution, 0.2 ml of acetonitrile was added and the supernatant solution was immediately injected in a […] HPLC apparatus (t=0), eluted at 3 ml/min on a reversed phase column with a mixture of water/acetonitrile containing 0.1% of TFA. The amount of the released alcohol was monitored by HPLC analysis at different time intervals at λ=214 or 254 nm. An external calibration curve for the corresponding alcohol in acetonitrile has been obtained from 4-8 dilutions. Chromatograms were recorded on a Merck Chromolith™ Performance RP-C18e column (100×4.6 mm i.d.) using a water/acetonitrile gradient (100:0 for 0.2 min then to 0:100 during 10 min or 80:20 to 20:80 during 10 min).

## CCCC(Cc1ccccc1)OC(=O)c1ccccc1C(=O)NCCCN(C)CCCNC(=O)c1ccccc1C(=O)OC(CCC)Cc1ccccc1 (racemic) [Example 2b, (±)-bis(1-benzylbutyl)2,2′-(6-methyl-1,11-dioxo-2,6,10-triazaundecane-1,11-diyl)dibenzoate]
[1]; pH 7.62, 2.1 h
  Amount of cyclized precursor: 98%

## C=CC(C)(CCC=C(C)C)OC(=O)c1ccccc1C(=O)NCCCN(C)CCCNC(=O)c1ccccc1C(=O)OC(C)(C=C)CCC=C(C)C (racemic) [Example 5b, (±)-bis(1,5-dimethyl-1-vinyl-4-hexenyl) 2,2′-(6-methyl-1,11-dioxo-2,6,10-triazaundecane-1,11-diyl)dibenzoate]
[1]; pH 7.62, 9.4 h
  Amount of cyclized precursor: 72%
[2]
  Hydrolysis followed by UV absorption spectra: verified

## CC(C)=CCC/C(C)=C/COC(=O)/C=C\C(=O)NCCNC(=O)/C=C\C(=O)OC/C=C(\C)CCC=C(C)C [Example 1, (6E,11Z,19Z,24E)-2,6,25,29-tetramethyl-9,22-dioxa-14,17-diaza-2,6,11,19,24,28-triaconta-hexaene-10,13,18,21-tetrone]
[1]; pH 7.62, 4.7 h
  Amount of cyclized precursor: 97%

## CN(CCCNC(=O)c1ccccc1C(=O)OC(C)(C)Cc1ccccc1)CCCNC(=O)c1ccccc1C(=O)OC(C)(C)Cc1ccccc1 [Example 3b, bis(1,1-dimethyl-2-phenylethyl) 2,2′-(6-methyl-1,11-dioxo-2,6,10-triazaundecane-1,11-diyl)dibenzoate]
[1]; pH 7.62, 22.4 h
  Amount of cyclized precursor: 69%
[2]
  Hydrolysis followed by UV absorption spectra: verified

## CC(C)(Cc1ccccc1)OC(=O)c1ccccc1C(=O)NCCCCCCCNC(=O)c1ccccc1C(=O)OC(C)(C)Cc1ccccc1 [Example 4, bis(1,1-dimethyl-2-phenylethyl) 2,2′-(1,11-dioxo-2,10-diazaundecane-1,11-diyl)dibenzoate]
[1]; pH 10.47, 3.0 h
  Amount of cyclized precursor: 98%

## CC(C)(Cc1ccccc1)OC(=O)c1ccccc1C(=O)NCCCN(CCCCN(CCCNC(=O)c1ccccc1C(=O)OC(C)(C)Cc1ccccc1)CCCNC(=O)c1ccccc1C(=O)OC(C)(C)Cc1ccccc1)CCCNC(=O)c1ccccc1C(=O)OC(C)(C)Cc1ccccc1 [Example 6b, Dendrimer 4-cascade: 1,4-diaminobutane[4-N,N,N′,N′]:N-(2-[(1,1-dimethyl-2-phenylethoxy)carbonyl]benzoyl)propylamine]
[1]; pH 7.62, 24.6 h
  Amount of cyclized precursor: 80%
[2]
  Hydrolysis followed by UV absorption spectra: verified

## CC(C)(Cc1ccccc1)OC(=O)c1ccccc1C(=O)NCCCN(CCCNC(=O)c1ccccc1C(=O)OC(C)(C)Cc1ccccc1)CCCN(CCCCN(CCCN(CCCNC(=O)c1ccccc1C(=O)OC(C)(C)Cc1ccccc1)CCCNC(=O)c1ccccc1C(=O)OC(C)(C)Cc1ccccc1)CCCN(CCCNC(=O)c1ccccc1C(=O)OC(C)(C)Cc1ccccc1)CCCNC(=O)c1ccccc1C(=O)OC(C)(C)Cc1ccccc1)CCCN(CCCNC(=O)c1ccccc1C(=O)OC(C)(C)Cc1ccccc1)CCCNC(=O)c1ccccc1C(=O)OC(C)(C)Cc1ccccc1 [Example 7]
[3]; pH 10.47, 2 d
  Amount of released alcohol: 29%

## dendrimer 16-cascade: 1,4-diaminobutane[4-N,N,N′,N′:(1-azabutylidene)^2:N-(2-[(1,1-dimethyl-2-phenylethoxy)carbonyl]benzoyl)propylamine [Example 8]
[3]; pH 10.98, 4 d, phosphate-bicarbonate buffer in water/acetonitrile 16:9
  Amount of released alcohol: 69%
